Assay results taken from patent US6706663B2, “Herbicidal 3-heterocyclic substituted benzisothiazole and benzisoxazole compounds” (Wyeth, priority 2000, dated 2004).

Tests used:
[1] = test system: ECHCG (Echinochloa crus-galli); assay: Postemergence herbicidal evaluation; type: in vivo, (L.) Beau; conditions: for ECHCG herbicidal rating: postemergence
Method in brief: (§1)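 Visual 0–9 injury scores versus control plants, covering stand, vigour, malformation, size, chlorosis and general appearance, taken four to five weeks post-spray and averaged over replicate tests. Plants were sprayed at roughly two weeks old and held on greenhouse benches.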

[2] = test system: CYPIR (Cyperus iria); assay: Flooded paddy, preemergence weed control; type: in vivo; conditions: rated 3-4 weeks after treatment, 0-9 rating scale
Method in brief: (§2)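 Under paddy conditions, seeds or vegetative propagules go into the top 0.5 cm of silt loam; the soil is then flooded to 1.5–3 cm and kept so. Treated pots stay in a greenhouse; response is rated 0-9 visually versus control.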

[3] = test system: GLXMAW (Soybean, Williams); assay: Preemergence herbicidal evaluation; type: in vivo, Glycine max, (L.) Merr. cv Williams; conditions: rated 4-5 weeks after treatment
[4] = test system: TRZAWR (Wheat, Winter, cv Riband); assay: Preemergence herbicidal evaluation; type: in vivo, Triticum aestivum; conditions: rated 4-5 weeks after treatment
Method in brief: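 Steps: mix seeds with potting soil; plant on ~1 inch soil per cup; spray compound in aqueous acetone; hold on greenhouse benches with routine watering; rate 0–9 visually against control at 4–5 weeks.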

[5] = test system: ORYSAT (Rice, Tebonnet); assay: Postemergence herbicidal evaluation; type: in vivo, Oryza sativa, (L.) Tebonnet; conditions: for ORYSAT herbicidal rating: postemergence
Method in brief: as §1

[6] = test system: ZEAMX (Corn, Field); assay: Postemergence herbicidal evaluation; type: in vivo, Zea mays, L.; conditions: for ZEAMX herbicidal rating: postemergence
Method in brief: as §1

[7] = test system: ORYSAT (Rice, Tebonnet); assay: Preemergence herbicidal evaluation; type: in vivo, Oryza sativa, (L.) Tebonnet; conditions: rated 4-5 weeks after treatment
[8] = test system: SAGPY (Sagittaria pygmaea); assay: Flooded paddy, preemergence weed control; type: in vivo, L.; conditions: rated 3-4 weeks after treatment, 0-9 rating scale
Method in brief: as §2

[9] = test system: ECHORC (Echinochloa oryzoides); assay: Flooded paddy, preemergence weed control; type: in vivo, Echinochloa oryzoides (Ard.) Fritsch.; conditions: rated 3-4 weeks after treatment, 0-9 rating scale
Method in brief: as §2

[10] = test system: AMBEL (Ambrosia artemisifolia); assay: Postemergence herbicidal evaluation; type: in vivo, L.; conditions: for AMBEL herbicidal rating: postemergence
Method in brief: as §1

[11] = test system: CASOB (Cassia obtusifolia); assay: Postemergence herbicidal evaluation; type: in vivo, L.; conditions: for CASOB herbicidal rating: postemergence
Method in brief: as §1

[12] = test system: CHEAL (Chenopodium album); assay: Postemergence herbicidal evaluation; type: in vivo, L.; conditions: for CHEAL herbicidal rating: postemergence
Method in brief: as §1

[13] = test system: IPOHE (Ipomoea hederacea); assay: Preemergence herbicidal evaluation; type: in vivo, (L.) Jacq.; conditions: rated 4-5 weeks after treatment

Cn1c(C(F)(F)F)cc(=O)n(-c2ccc3snc(C4OCCCS4)c3c2)c1=O (centres unmarked) [Compound 34, 1-methyl-3-[3-(1,3-oxathian-2-yl)-1,2-benzisothiazol-5-yl]-6-(trifluoromethyl)uracil]
ECHCG herbicidal rating ([1]; rate 0.0320 kg/ha): 3.0
ECHCG herbicidal rating ([1]; rate 0.0620 kg/ha): 4.0
Postemergence herbicidal rating, ECHCG ([1]; rate 0.0320 kg/ha): 4.0
Postemergence herbicidal rating, ECHCG ([1]; rate 0.0620 kg/ha): 6.0
herbicidal rating, CYPIR ([2]; rate 0.0320 kg/ha): 9.0
herbicidal rating, CYPIR ([2]; rate 0.0620 kg/ha): 7.0
GLXMAW preemergence herbicidal rating ([3]; Rate 0.0620 kg/ha): 7.5
Preemergence herbicidal rating GLXMAW ([3]; Rate 0.0620 kg/ha): 6.5
GLXMAW preemergence herbicidal rating ([3]; Rate 0.1250 kg/ha): 9.0
Preemergence herbicidal rating GLXMAW ([3]; Rate 0.1250 kg/ha): 7.0
GLXMAW preemergence herbicidal rating ([3]; Rate 0.2500 kg/ha): 9.0
Preemergence herbicidal rating GLXMAW ([3]; Rate 0.2500 kg/ha): 7.0
TRZAWR preemergence herbicidal rating ([4]; Rate 0.0620 kg/ha): 5.0
Preemergence herbicidal rating TRZAWR ([4]; Rate 0.0620 kg/ha): 5.0
TRZAWR preemergence herbicidal rating ([4]; Rate 0.1250 kg/ha): 7.0
Preemergence herbicidal rating TRZAWR ([4]; Rate 0.1250 kg/ha): 5.0
TRZAWR preemergence herbicidal rating ([4]; Rate 0.2500 kg/ha): 8.0
Preemergence herbicidal rating TRZAWR ([4]; Rate 0.2500 kg/ha): 7.0
ORYSAT herbicidal rating ([5]; rate 0.0320 kg/ha): 5.5
ORYSAT herbicidal rating ([5]; rate 0.0620 kg/ha): 6.5
Postemergence herbicidal rating, ORYSAT ([5]; rate 0.0320 kg/ha): 7.0
Postemergence herbicidal rating, ORYSAT ([5]; rate 0.0620 kg/ha): 7.0
ZEAMX herbicidal rating ([6]; rate 0.0320 kg/ha): 5.0
ZEAMX herbicidal rating ([6]; rate 0.0620 kg/ha): 7.0
Postemergence herbicidal rating, ZEAMX ([6]; rate 0.0320 kg/ha): 6.0
Postemergence herbicidal rating, ZEAMX ([6]; rate 0.0620 kg/ha): 7.0
ORYSAT preemergence herbicidal rating ([7]; Rate 0.0620 kg/ha): 5.5
Preemergence herbicidal rating ORYSAT ([7]; Rate 0.0620 kg/ha): 3.0
ORYSAT preemergence herbicidal rating ([7]; Rate 0.1250 kg/ha): 8.0
Preemergence herbicidal rating ORYSAT ([7]; Rate 0.1250 kg/ha): 4.5
ORYSAT preemergence herbicidal rating ([7]; Rate 0.2500 kg/ha): 9.0
Preemergence herbicidal rating ORYSAT ([7]; Rate 0.2500 kg/ha): 5.5
herbicidal rating, SAGPY ([8]; rate 0.0080 kg/ha): 0.0
herbicidal rating, SAGPY ([8]; rate 0.0320 kg/ha): 4.7
herbicidal rating, SAGPY ([8]; rate 0.0620 kg/ha): 3.5
herbicidal rating, ECHORC ([9]; rate 0.0320 kg/ha): 9.0
herbicidal rating, ECHORC ([9]; rate 0.0620 kg/ha): 8.0
herbicidal rating, ECHORC ([9]; rate 0.1250 kg/ha): 9.0
AMBEL herbicidal rating ([10]; rate 0.0320 kg/ha): 7.0
AMBEL herbicidal rating ([10]; rate 0.0620 kg/ha): 9.0
Postemergence herbicidal rating, AMBEL ([10]; rate 0.0320 kg/ha): 9.0
Postemergence herbicidal rating, AMBEL ([10]; rate 0.0620 kg/ha): 9.0
CASOB herbicidal rating ([11]; rate 0.0320 kg/ha): 6.0
CASOB herbicidal rating ([11]; rate 0.0620 kg/ha): 6.0
Postemergence herbicidal rating, CASOB ([11]; rate 0.0320 kg/ha): 9.0
Postemergence herbicidal rating, CASOB ([11]; rate 0.0620 kg/ha): 9.0
CHEAL herbicidal rating ([12]; rate 0.0320 kg/ha): 7.0
CHEAL herbicidal rating ([12]; rate 0.0620 kg/ha): 9.0
Postemergence herbicidal rating, CHEAL ([12]; rate 0.0320 kg/ha): 7.0
Postemergence herbicidal rating, CHEAL ([12]; rate 0.0620 kg/ha): 9.0
IPOHE preemergence herbicidal rating ([13]; Rate 0.0620 kg/ha): 9.0
Preemergence herbicidal rating IPOHE ([13]; Rate 0.0620 kg/ha): 6.0
IPOHE preemergence herbicidal rating ([13]; Rate 0.1250 kg/ha): 9.0
Preemergence herbicidal rating IPOHE ([13]; Rate 0.1250 kg/ha): 6.0
IPOHE preemergence herbicidal rating ([13]; Rate 0.2500 kg/ha): 9.0
Preemergence herbicidal rating IPOHE ([13]; Rate 0.2500 kg/ha): 9.0
